Assay results from PubChem BioAssay (NCI).
Values joined by “and” are separate entries in the source; they are usually repeats but may differ in a detail not shown here. Equal entries are not always repeated.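 Protocol summary: plate cells (96-well), add compound at 5 concentrations, incubate 48 h, interpolate endpoints linearly. Abbreviation: GI50, concentration required for 50% inhibition of growth. TGI: total growth inhibition.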

What was measured:
Experiment in all cases: NCI tumour cell line growth inhibition, 48 h
BT-549 breast = test system: BT-549 breast
XF 498 CNS = test system: XF 498 CNS
M19-MEL melanoma = test system: M19-MEL melanoma
DLD-1 colon = test system: DLD-1 colon
RXF-631 renal = test system: RXF-631 renal
SNB-78 CNS = test system: SNB-78 CNS
KM20L2 colon = test system: KM20L2 colon
HOP-18 NSCLC = test system: HOP-18 NSCLC
MDA-N = test system: MDA-N
P388/ADR leukemia = test system: P388/ADR leukemia

Compound: CCn1c2c(n(CC)c1=S)-c1c(n(CC)c(=S)n1CC)SSSS2
- TGI (BT-549 breast): 29.1 µM
- TGI (XF 498 CNS): 4.08 µM
- TGI (M19-MEL melanoma): 22.1 µM
- TGI (DLD-1 colon): 5.73 µM
- TGI (RXF-631 renal): 24.4 µM
- TGI (SNB-78 CNS): 28.1 µM
- TGI (KM20L2 colon): 29.5 µM
- TGI (HOP-18 NSCLC): 22 µM

Compound: CC(C)(C)c1nc2c(o1)C(=O)c1ccccc1C2=O
- TGI (BT-549 breast): 2.84 µM
- TGI (MDA-N): 0.367 µM
- TGI (XF 498 CNS): 7.15 µM
- TGI (M19-MEL melanoma): 2.84 µM
- TGI (DLD-1 colon): 14.5 µM
- TGI (RXF-631 renal): 14.9 µM
- TGI (SNB-78 CNS): 39.1 µM
- TGI (KM20L2 colon): 48.2 µM
- TGI (HOP-18 NSCLC): 18.9 µM

Compound: CC[C@H]1CN2CCc3cc(OC)c(OC)cc3[C@@H]2C[C@@H]1C[C@H]1NCCc2cc(O)c(OC)cc21
- GI50 (BT-549 breast): 0.0422 µM and 0.0485 µM
- TGI (BT-549 breast): 0.298 µM
- GI50 (MDA-N): 0.0127 µM
- TGI (MDA-N): 0.0354 µM and 0.141 µM
- GI50 (XF 498 CNS): 0.025 µM
- TGI (XF 498 CNS): 0.0388 µM
- GI50 (P388/ADR leukemia): 0.0609 µM
- TGI (P388/ADR leukemia): 29.6 µM
- TGI (M19-MEL melanoma): 0.0492 µM and 0.0178 µM and 0.0876 µM
- TGI (DLD-1 colon): 0.0454 µM and 0.356 µM
- GI50 (SNB-78 CNS): 0.0266 µM and 0.0502 µM
- TGI (KM20L2 colon): 0.0302 µM and 0.136 µM
- GI50 (HOP-18 NSCLC): 0.0284 µM and 0.13 µM
- TGI (HOP-18 NSCLC): 0.793 µM

Compound: N/N=C1\C(=O)N(C2CCCCC2)C(=O)C1C(=O)NC1CCCCC1 (stereo not drawn)
- TGI (XF 498 CNS): > 100 µM
- TGI (M19-MEL melanoma): > 100 µM
- TGI (DLD-1 colon): > 100 µM
- TGI (RXF-631 renal): > 100 µM
- TGI (SNB-78 CNS): > 100 µM
- TGI (KM20L2 colon): 39.9 µM
- TGI (HOP-18 NSCLC): > 100 µM
